Holding throughout (type): cell-based
One assay concerns Epidermophyton floccosum. Description: Minimum Inhibitory Concentration (MIC) Method B, DIN 58940; Synergy Index according to Kull. Conditions: single substance. The procedure: B) Minimum Inhibitory Concentration (MIC) Method B
5 ml of the appropriate dilution of the test product is mixed with 0.1 ml of test suspension and mixed well. After the required action times, the mixture was mixed again. Each 0.1 ml were removed and placed in 5 ml of CSL-bouillon without neutralizing agents.
In order to calculate the synergy index with MIC values, the Kull equation (I) was used as follows:
SI=(MICmixture×PA)/MICA+(MICmixture×PB)/MICB (I)
SI is the Synergy Index according to Kull
MICA is the MIC value for Substance A
MICB is the MIC value for Substance B
MICmixture is the MIC value for the mixture of substances A and B
PA is the proportion of the substance A in the mixture
PB is the proportion of the substance B in the mixture

Assay [1] deals with Staphylococcus epidermidis. Description: Minimum Inhibitory Concentration (MIC) Method A. Conditions: read-out: MIC. The procedure: (§1) A) Minimum Inhibitory Concentration (MIC) Method A
(§2) The MIC test is a test on growth inhibition. Estimation of Minimum Inhibitory Concentration (MIC) is executed in 96 well plates. Through the comparison of bacterial growth curves with positive and negative controls via optical density (OD), different concentrations of given test substances are evaluated.
(§3) Bacteria are cultivated under adjusted conditions based on information of the German Collection of Microorganisms and Cell Cultures (DSMZ) and stored in 50% Glycerol prior to use. Afterwards, the following method was applied:
(§4) Adding growth medium (according to microorganism) to each well of the microplate.
(§5) Adding the test-substances in different concentrations, positive controls (water controls only with medium) and negative controls (benchmarks according to organism).
(§6) Adding the microorganism in a concentration of 10^6 CFU/ml (CFU=colony forming units). Incubation of the microplates at appropriate conditions.
(§7) Aerobic microorganism: optical density is continuously measured (microplate reader) during incubation.
(§8) According to resulting growth curves, substance concentrations are labelled either as inhibiting or normal growth and MIC is defined as the lowest concentration where a clear inhibition is visible. Experiments at concentration limits (highest concentration labelled as growth and lowest concentration labelled as inhibiting) are performed at least twice.

For another assay, the system named is Staphylococcus aureus. Description: Minimum Inhibitory Concentration (MIC) Method A. Conditions: read-out: MIC. The procedure:
as §1, §2, §3, §4, §5, §6, §7, §8

For the next assay, the system named is Streptococcus mutans. Description: Minimum Inhibitory Concentration (MIC) Method B. The procedure: (§9) B) Minimum Inhibitory Concentration (MIC) Method B Test conditions: Evaluation of bactericidal and fungicidal activity in qualitative suspension test (VAH-standard methods, 04-2015). 5 ml of the appropriate dilution of the test product is mixed with 0.1 ml of test suspension and mixed well. After the required action times, the mixture was mixed again. Each 0.1 ml were removed and placed in 5 ml of CSL-bouillon without neutralizing agents.

In assay [2] the test system is Fannyhessea vaginae (Atopobium vaginae). Description: Minimum Inhibitory Concentration (MIC) Method B. The procedure: as §9
The next assay has as its system Gardnerella vaginalis. Description: Minimum Inhibitory Concentration (MIC) Method B. The procedure:
as §9

Another assay has as its system Trichophyton rubrum. Description: Minimum Inhibitory Concentration (MIC) Method B. The protocol: as §9
The test system of another assay is Streptococcus agalactiae. Description: Minimum Inhibitory Concentration (MIC) Method B. The protocol: as §9
The subject of another assay is Peptoniphilus lacrimalis. Description: Minimum Inhibitory Concentration (MIC) Method B. The procedure:
as §9

The next assay deals with human sebaceous glands. Description: Sebum secretion in cultured micro-dissected human sebaceous glands. Conditions: human sebaceous glands of Donor 1 and Donor 2; six days culture; different concentrations; vs untreated control. The protocol:
Additional tests were performed with human sebaceous glands in order to verify the modulatory activity of a compound on sebum secretion. For this sebaceous glands had been micro-dissected and cultured with medium. The medium without any supplement served as untreated control. Medium with 5 μM Capsaicin served as positive control. Additionally, culture medium was supplemented with different concentrations of 3-hydroxypropyl caprylate. After six days the sebaceous glands were collected and lipids and proteins quantified. The total lipid amount being representative of sebum production was obtained by normalizing the quantified lipids upon the quantified proteins (i.e. mg of lipids/mg of proteins).

Structures are written as SMILES. Values after ≈ are worked out from the molar mass of the structure shown.

As for `CCCCCCCC(=O)OCCCO` [3-hydroxypropyl caprylate], the MIC with Epidermophyton floccosum was found to be 500 µg/mL; in assay [1], 500 µg/mL (≈ 2470 µM); in the assay on Staphylococcus aureus, 500 µg/mL (≈ 2470 µM); against Streptococcus mutans it was 5000 µg/mL (≈ 24700 µM); in [2] it was 500 µg/mL (≈ 2470 µM); with Gardnerella vaginalis, 500 µg/mL (≈ 2470 µM). The MIC was found to be 500 µg/mL (≈ 2470 µM) against Trichophyton rubrum, 10000 µg/mL (≈ 49400 µM) in the assay on Streptococcus agalactiae and 1000 µg/mL (≈ 4940 µM) in the assay on Peptoniphilus lacrimalis. The “relative change in total lipids (mg of lipids/mg of proteins), representative of sebum production” value with human sebaceous glands is recorded as “concentration dependent reduction of total lipids”.

Source of the values: patent US20220117867A1, “ANTIMICROBIAL ACTIVITY OF FATTY ACID ESTERS AND COMBINATIONS THEREOF” (SYMRISE AG, priority 2019, published 2022).
